Reference: patent publication US9908912B2, “Triclosan derivatives and uses thereof” (priority 2012, dated 2018)
≈ marks a conversion by molar mass, not a printed value.

Experiments:
Ent. faecium = assay: MIC in Nutrient Agar; assay type: cell-based, Enterococcus faecium; details: Nutrient Agar containing 0.1 μg/ml of inducer; 37° C., 24 hours
Description: (§1) The triclosan-glycosides were added to Nutrient Agar (Oxoid CM0003; Thermofisher Scientific) and organisms were transferred onto the plates surface using a multi-point inoculation device (Oxoid Cathra, Thermofisher Scientific). The latter is essentially a metal plate containing a number of needles. Each needle tip (usually 36 per plate) dips into an organism suspension (in phosphate buffered saline; PBS) and the needles are then moved over the agar plate and lowered onto its surface. In this way the growth of colonies of up to 36 different organisms can be observed on one plate.
(§2) Nutrient Agar No. 2 was prepared according to the manufacturers instructions, autoclaved and cooled to 50° C. Test compounds were then added as filter sterilised solutions (50:50 deionised water:ethanol), to give final concentrations from 256 μg/ml to 0 μg/ml in doubling dilutions. […] The mixtures were swirled then four plates (25 ml molten agar) were poured for each concentration. Plates were dried in a laminar flow cabinet then inoculated with overnight cultures of organisms that had been decimally diluted twice in sterile saline solution (approximately 10^7 cfu/ml) using a multi-point inoculator. Plates were then incubated at 37° C. for 24 hours. MICs were determined as the concentration at which no growth was observed.

E. hermanii ATCC 33650 = assay: MIC in Nutrient Broth No. 2; assay type: cell-based, Escherichia hermanii; details: Nutrient Broth No. 2
Description: (§3) Bacteria species as indicated in Table 1 were incubated for approximately 24 hours at 37° C.
(§4) The tests were repeated with the addition of inducers. Methyl glycoside was the main inducer used, but other suitable inducers include isopropyl-β-D-thiogalactopyranoside, p-nitrophenyl-α-L-arabinopyranoside and p-nitrophenyl-β-D-xylopyranoside. Concentration of inducer in all cases was 100 μg/ml.

S. haemolyticus = assay: MIC in Nutrient Agar; assay type: cell-based, Staphylococcus haemolyticus; details: Nutrient Agar containing 0.1 μg/ml of inducer; 37° C., 24 hours
Description: as §1, §2

Bacillus subtilis = assay: MIC in Nutrient Agar; assay type: cell-based; details: Nutrient Agar containing 0.1 μg/ml of inducer; 37° C., 24 hours
Description: as §1, §2

Hafnia alvei = assay: MIC in Nutrient Agar; assay type: cell-based; details: Nutrient Agar containing 0.1 μg/ml of inducer; 37° C., 24 hours
Description: as §1, §2

Bacillus cereus = assay: MIC in Nutrient Agar; assay type: cell-based; details: Nutrient Agar containing 0.1 μg/ml of inducer; 37° C., 24 hours
Description: as §1, §2

Salmonella = assay: MIC in Nutrient Agar; assay type: cell-based; details: 11 strains; Nutrient Agar containing 0.1 μg/ml of inducer; 37° C., 24 hours
Description: as §1, §2

Ps. aeruginosa = assay: MIC in Nutrient Agar; assay type: cell-based; details: Nutrient Agar containing 0.1 μg/ml of inducer; 37° C., 24 hours
Description: as §1, §2

S. aureus = assay: MIC in Nutrient Agar; assay type: cell-based, Staphylococcus aureus; details: 8 strains; Nutrient Agar containing 0.1 μg/ml of inducer; 37° C., 24 hours
Description: as §1, §2

S. saprophyticus = assay: MIC in Nutrient Agar; assay type: cell-based, Staphylococcus saprophyticus; details: Nutrient Agar containing 0.1 μg/ml of inducer; 37° C., 24 hours
Description: as §1, §2

Str. pneumoniae = assay: MIC in Nutrient Agar; assay type: cell-based, Streptococcus pneumoniae; details: Nutrient Agar containing 0.1 μg/ml of inducer; 37° C., 24 hours
Description: as §1, §2

Ser. marcescens = assay: MIC in Nutrient Agar; assay type: cell-based, Serratia marcescens; details: Nutrient Agar containing 0.1 μg/ml of inducer; 37° C., 24 hours
Description: as §1, §2

Strep. viridans OCC 234 = assay: MIC in Nutrient Broth No. 2; assay type: cell-based, Streptococcus viridans; details: Nutrient Broth No. 2
Description: as §3, §4

Str. viridans = assay: MIC in Nutrient Agar; assay type: cell-based, Streptococcus viridans; details: Nutrient Agar containing 0.1 μg/ml of inducer; 37° C., 24 hours
Description: as §1, §2

Kleb. pneumoniae = assay: MIC in Nutrient Agar; assay type: cell-based, Klebsiella pneumoniae; details: Nutrient Agar containing 0.1 μg/ml of inducer; 37° C., 24 hours
Description: as §1, §2

[1] = system: Staph. saprophyticus ATCC 15305; assay: MIC in Nutrient Broth No. 2; assay type: cell-based, Staphylococcus saprophyticus; details: Nutrient Broth No. 2
Description: as §3, §4

Staph. aureus = assay: MIC in Nutrient Broth No. 2; assay type: cell-based, Staphylococcus aureus; details: 8 strains, Nutrient Broth No. 2
Description: as §3, §4

[2] = system: Kleb. pneumoniae ATCC 10031; assay: MIC in Nutrient Broth No. 2; assay type: cell-based, Klebsiella pneumoniae; details: Nutrient Broth No. 2
Description: as §3, §4

[3] = system: Strep. pneumoniae ATCC 6305; assay: MIC in Nutrient Broth No. 2; assay type: cell-based, Streptococcus pneumoniae; details: Nutrient Broth No. 2
Description: as §3, §4

Ent. cloacae ATCC 13047 = assay: MIC in Nutrient Broth No. 2; assay type: cell-based, Enterobacter cloacae; details: Nutrient Broth No. 2
Description: as §3, §4

Kleb. aerogenes = assay: MIC in Nutrient Agar; assay type: cell-based, Klebsiella aerogenes; details: Nutrient Agar containing 0.1 μg/ml of inducer; 37° C., 24 hours
Description: as §1, §2

[4] = system: Strep. pyogenes ATCC 19615; assay: MIC in Nutrient Broth No. 2; assay type: cell-based, Streptococcus pyogenes; details: Nutrient Broth No. 2
Description: as §3, §4

Ent. cloacae = assay: MIC in Nutrient Agar; assay type: cell-based, Enterobacter cloacae; details: Nutrient Agar containing 0.1 μg/ml of inducer; 37° C., 24 hours
Description: as §1, §2

[5] = system: Staph. haemolyticus OCC 2223; assay: MIC in Nutrient Broth No. 2; assay type: cell-based, Staphylococcus haemolyticus; details: Nutrient Broth No. 2
Description: as §3, §4

C. freundii = assay: MIC in Nutrient Agar; assay type: cell-based, Citrobacter freundii; details: Nutrient Agar containing 0.1 μg/ml of inducer; 37° C., 24 hours
Description: as §1, §2

Cr. sakazakii = assay: MIC in Nutrient Agar; assay type: cell-based, Cronobacter sakazakii; details: Nutrient Agar containing 0.1 μg/ml of inducer; 37° C., 24 hours
Description: as §1, §2

[6] = system: Strep. agalactiae OCC 182; assay: MIC in Nutrient Broth No. 2; assay type: cell-based, Streptococcus agalactiae; details: Nutrient Broth No. 2
Description: as §3, §4

[7] = system: Crono. sakazakii ATCC 29544; assay: MIC in Nutrient Broth No. 2; assay type: cell-based, Cronobacter sakazakii; details: Nutrient Broth No. 2
Description: as §3, §4

Ent. aerogenes = assay: MIC in Nutrient Agar; assay type: cell-based, Enterobacter aerogenes; details: Nutrient Agar containing 0.1 μg/ml of inducer; 37° C., 24 hours
Description: as §1, §2

Aer. hydrophila = assay: MIC in Nutrient Agar; assay type: cell-based, Aeromonas hydrophila; details: Nutrient Agar containing 0.1 μg/ml of inducer; 37° C., 24 hours
Description: as §1, §2

Str. agalactiae = assay: MIC in Nutrient Agar; assay type: cell-based, Streptococcus agalactiae; details: Nutrient Agar containing 0.1 μg/ml of inducer; 37° C., 24 hours
Description: as §1, §2

[8] = system: Kleb. aerogenes NCTC 88167; assay: MIC in Nutrient Broth No. 2; assay type: cell-based, Klebsiella aerogenes; details: Nutrient Broth No. 2
Description: as §3, §4

Ent. faecalis = assay: MIC in Nutrient Agar; assay type: cell-based, Enterococcus faecalis; details: Nutrient Agar containing 0.1 μg/ml of inducer; 37° C., 24 hours
Description: as §1, §2

In the case of `OC[C@H]1O[C@H](Oc2cc(Cl)ccc2Oc2ccc(Cl)cc2Cl)[C@H](O)[C@@H](O)[C@@H]1O` [α-D-Glucoside, triclosan-α-D-glucopyranoside], the MIC (Ent. faecium) is reported as 128 µg/mL (≈ 283 µM), the MIC (E. hermanii ATCC 33650; with inducer 100 μg/ml) is reported as 1 µg/mL (≈ 2.21 µM) and the MIC (E. hermanii ATCC 33650; without inducer) is reported as 1 µg/mL (≈ 2.21 µM). For the same compound, the MIC (S. haemolyticus) was 1 µg/mL (≈ 2.21 µM), the MIC (Bacillus subtilis) was 16 µg/mL (≈ 35.4 µM) and the MIC (Hafnia alvei) was 0.5 µg/mL (≈ 1.11 µM). It also gave an MIC (Bacillus cereus) of 64 µg/mL (≈ 142 µM), an MIC (Salmonella) of 1 to 4 µg/mL and an MIC (Ps. aeruginosa) greater than 256 µg/mL. It also gave an MIC (S. aureus) of 0.25 to 1 µg/mL, an MIC (S. saprophyticus) of 4 µg/mL (≈ 8.86 µM) and an MIC (Str. pneumoniae) of 32 µg/mL (≈ 70.8 µM). The MIC (Ser. marcescens) was greater than 256 µg/mL, the MIC (Strep. viridans OCC 234; with inducer 100 μg/ml) was 64 µg/mL (≈ 142 µM) and the MIC (Strep. viridans OCC 234; without inducer) was 128 µg/mL (≈ 283 µM). It also gave an MIC (Str. viridans) of 64 µg/mL (≈ 142 µM), an MIC (Kleb. pneumoniae) of 0.5 µg/mL (≈ 1.11 µM) and an MIC ([1]; with inducer 100 μg/ml) of 4 µg/mL (≈ 8.86 µM). It also gave an MIC ([1]; without inducer) of 4 µg/mL (≈ 8.86 µM), an MIC (Staph. aureus; with inducer 100 μg/ml) of 1 µg/mL (≈ 2.21 µM) and an MIC (Staph. aureus; without inducer) of 1 µg/mL (≈ 2.21 µM). The MIC ([2]; with inducer 100 μg/ml) was 1 µg/mL (≈ 2.21 µM), the MIC ([2]; without inducer) was 1 µg/mL (≈ 2.21 µM) and the MIC ([3]; with inducer 100 μg/ml) was 16 µg/mL (≈ 35.4 µM). It also gave an MIC ([3]; without inducer) of 32 µg/mL (≈ 70.8 µM), an MIC (Ent. cloacae ATCC 13047; with inducer 100 μg/ml) of 1 µg/mL (≈ 2.21 µM) and an MIC (Ent. cloacae ATCC 13047; without inducer) of 1 µg/mL (≈ 2.21 µM). It also gave an MIC (Kleb. aerogenes) of 2 µg/mL (≈ 4.43 µM), an MIC ([4]; with inducer 100 μg/ml) of 16 µg/mL (≈ 35.4 µM) and an MIC ([4]; without inducer) of 32 µg/mL (≈ 70.8 µM). For the same compound, the MIC (Ent. cloacae) was 1 µg/mL (≈ 2.21 µM), the MIC ([5]; with inducer 100 μg/ml) was 1 µg/mL (≈ 2.21 µM) and the MIC ([5]; without inducer) was 1 µg/mL (≈ 2.21 µM). It also gave an MIC (C. freundii) of 4 µg/mL (≈ 8.86 µM), an MIC (Cr. sakazakii) of 4 µg/mL (≈ 8.86 µM) and an MIC ([6]; with inducer 100 μg/ml) of 128 µg/mL (≈ 283 µM). For the same compound, the MIC ([6]; without inducer) was 128 µg/mL (≈ 283 µM), the MIC ([7]; with inducer 100 μg/ml) was 4 µg/mL (≈ 8.86 µM) and the MIC ([7]; without inducer) was 8 µg/mL (≈ 17.7 µM). For the same compound, the MIC (Ent. aerogenes) was 4 µg/mL (≈ 8.86 µM), the MIC (Aer. hydrophila) was 128 µg/mL (≈ 283 µM) and the MIC (Str. agalactiae) was 128 µg/mL (≈ 283 µM). For the same compound, the MIC ([8]; with inducer 100 μg/ml) was 4 µg/mL (≈ 8.86 µM), the MIC ([8]; without inducer) was 2 µg/mL (≈ 4.43 µM) and the MIC (Ent. faecalis) was 128 µg/mL (≈ 283 µM).
